Reference: patent US10154981B2, “Use of a feed composition for reducing methane emission in ruminants, and/or to improve ruminant performance” (DSM IP ASSETS B.V., priority 2011, dated 2018)

Test system: rumen liquor
Experiment: In vitro test for methane production (modified Hohenheim Forage value Test, HFT)
Settings: for Effect on Methanogenesis (% compared to control) / Effect on VFA production (% compared to control): artificial TMR, 8 hours at 39° C.; for Effect on Methanogenesis (% compared to control) / Effect on VFA production (% compared to control) / VFA profile (as percentage of total VFA) Ace. / VFA profile (as percentage of total VFA) But. / VFA profile (as percentage of total VFA) Prop.: average of three experiments; for VFA profile (as percentage of total VFA) Ace.: acetate; for VFA profile (as percentage of total VFA) But.: butyrate; for VFA profile (as percentage of total VFA) Prop.: propionate

Structure (SMILES) | effect on the acetate/propionate ratio (in words) (3-nitrooxy propanol at 0.01% DM when combined with monensin) | methane inhibition (in words) (3-nitrooxy propanol used at 0.01% DM) | Effect on Methanogenesis (% compared to control) (Dose 0.005 % DM) [%] | Effect on VFA production (% compared to control) (Dose 0.005 % DM) [%] | Effect on Methanogenesis (% compared to control) (Dose 0.01 % DM) [%] | Effect on VFA production (% compared to control) (Dose 0.01 % DM) [%] | VFA profile (as percentage of total VFA) Ace. (Dose 0.005 % DM) | VFA profile (as percentage of total VFA) Ace. (Dose 0.01 % DM) | VFA profile (as percentage of total VFA) But. (Dose 0.005 % DM) | VFA profile (as percentage of total VFA) But. (Dose 0.01 % DM) | VFA profile (as percentage of total VFA) Prop. (Dose 0.005 % DM) | VFA profile (as percentage of total VFA) Prop. (Dose 0.01 % DM)
O=[N+]([O-])OCCCO [3-nitrooxy propanol, 3-Nitrooxypropanol] | further additive effect | maximal methane inhibition | −21 | −3 | −97 | −13 | 57 percentage of total VFA | 50 percentage of total VFA | 7 percentage of total VFA | 8 percentage of total VFA | 36 percentage of total VFA | 42 percentage of total VFA
CC[C@@]1([C@@H]2O[C@@H]([C@H]3O[C@@](O)(CO)[C@H](C)C[C@@H]3C)C[C@@H]2C)CC[C@H]([C@]2(C)CC[C@]3(C[C@H](O)[C@@H](C)[C@@H]([C@@H](C)[C@@H](OC)[C@H](C)C(=O)O)O3)O2)O1 [Monensin, monensin, reference compound] | – | – | – | – | −23 | −6 | – | 56 percentage of total VFA | – | 6 percentage of total VFA | – | 38 percentage of total VFA
